Laboratory results from patent US20020049157A1, “Use of proteasome inhibitors for treating cancer, inflammation, autoimmune disease, graft rejection and septic shock” (priority 1998, published 2002).

Legend:
Tonsillar T cells = assay: T cell viability by trypan blue exclusion; assay type: cell-based, human; details: for decrease of viability compared with cells without LAC: 10 μM LAC, medium or PHA
Description: Tonsillar T cells (A, B, and D) and Jurkat cells (C and E) were treated with LAC (10 μM for T cells and 6 μM for Jurkat cells). LAC was added at the beginning of the culture or 40 h after T cell activation as indicated. The cells were harvested at the time points as shown. They were evaluated for their viability with trypan blue exclusion (A, B, and C), and for their mode of cell death according to DNA fragmentation (D and E).
The viability of T cells and Jurkat cells after LAC-treatment was first evaluated with trypan blue exclusion. Resting T cells (T cells in medium) or PHA-stimulated T cells were cultured with 10 μM LAC (LAC added at the beginning of the culture).
There was a tendency that the activated T cells were more susceptible to LAC than the resting T cells. This became more evident when LAC was added to T cells 40 h after the PHA activation (FIG. 2B). […] On the other hand, the viability of the resting T cells in medium had only a small decrease (from 98% of the control to 87% of the LAC-treated) after 24 h of LAC presence.

Namalwa = assay: Quantitative filter elution assay of DNA fragmentation in Namalwa cells; assay type: cell-based, human; details: lactacystin 0.75-10 μM; 24-96 h
Description: A human B cell line Namalwa was stably transfected with an anti-apoptotic Bcl-2 family member Bcl-xL, and its sensitivity to the proteasome inhibitor-induced apoptosis tested by the quantitative filter elution assay (Schmitt et al., 1998, Exp. Cell Res. 240:107), which detects DNA fragmentation during apoptosis. The wild type Namalwa and transfected Namalwa cells overexpressing Bcl-xL were pulsed with ^14C-thymidine for 24 h, and then treated with different concentrations of lactacystin (0.75 μM, 1.5 μM, 3 μM, 6 μM and 10 μM). The cells were harvested at different time intervals (24-96 h), and DNA fragmentation measured.

Jurkat cells = assay: Respiration (O2 consumption) of Jurkat cells, oxygen electrode; assay type: cell-based
Excerpt: The function of Complex I of digitonin (Dig)-permeated Jurkat cells was blocked by rotenone (Rot), and the respiration was resumed by adding succinate (Suc), which provides electrons to Complex II directly and thus bypasses Complex I. The maximal respiration was achieved by adding CCCP (carbonyl cyanide m-chlorophenylhydrazone), which uncouples the oxidation and phosphorylation. The respiration could be blocked by antimycin A (Ant), which inhibits […]. Curves 1 and 6 represent positive controls of rat kidney mitochondria. Curves 2 and 5 represent normals untreated Jurkat cells. Curves 3 and 4 represent Jurkat cells treated with lactacystin (6 μM) for 2 h and 4 h, respectively.
Complex III in the respiration chain was blocked at Complex III antimycin (Ant), and the electron flow was resumed by addiind ascorbate (Asc) and TMPD (tetramethyl-p-phenyl-enediamine).
The assay system is identical to that described in FIG. 16. Jurkat cells were treated with LAC for 4 h (curve 3). The decoupling reagent used in this experiment to achieve maximal respiration is FCCP (carbonylcyanide-p-trifluoromethoxyphenylhydrazone).
The Jurkat Cells (JC) (30×10^6/ml) or rat kidney proximal tubules mitochondria (RKM) (0.5 mg of protein/ml) were incubated in 1 ml measuring chamber at 37° C. in a respiration buffer containing 200 mM sucrose, 5 mM MgCl2, 5 mM KH2PO4, and 30 mM HEPES-Tris (pH 7.5). During respiration experiments following substrates and inhibitors were used: 0.005% Digitonine (Dig); 10 mM Succinate (Suc); 1 mM Ascorbate (Asc); 0.4 mM tetramethyl-p- phenylenediamine (TMPD); 1 μM CCCP, 1 μM FCCP; 0.1 μM Rotenone (Rot); 50 nM Antimycin A (Anti); 1 mM KCN; 100 μM Cytochrome C (Cyt C). The respiration rate of the Jurkat Cells and mitochondria was measured polarographically with a Clarke oxygen electrode (Yellow Springs Instruments, Yellow Springs, Ohio, U.S.A.) using 1 ml thermojacketed chamber. Oxygen concentration was calibrated with air-saturated buffer using Hypoxanthine—Xanthine Oxidase—Catalase system (“chemical zero”). Oxygen consumption was continuously recorded using a “MacLab/8” (Analog Digital Instruments, U.S.A.) connected to a Macintosh SE computer and the MacLab Chart v.3.3.4 software. Rates of oxygen consumption are expressed as ng-atoms of oxygen/min.

IL-2 = IL-2 production by PBMC after PHA stimulation; assay type: cell-based, human; details: 2 to 4 days after PHA; LAC 10 μM added at the beginning; data not shown
Description: In the four systems of T and B cell activation and proliferation studied in the first section, the growth promoting activity of IL-2 is indirectly (for stimulation by PHA, anti-CD3, and anti-CD28 plus ionomycin), or directly (for SAC plus IL-2) involved. We then investigated the role of proteasome in IL-2Rα expression and IL-2 production. […] Under the experimental condition used, the viability of the LAC-treated cell was reasonable (>80% at 40 h) as described in the previous section as LAC was added only once initially. Moreover, no consistent change of IL-2 production in LAC-treated cells was a functional indication that the cell viability was reasonable and is not of a concern in interpreting the data. The results from this section indicate that IL-2Rα upregulation but not IL-2 production is proteasome-dependent, and the suppressed IL-2Rα expression likely contributes to LAC's inhibitory effect on T cells activation and proliferation. The Proteasome Activity is Critically Required Between G0 and G1/S Boundary in T Cells

CC(=O)N[C@@H](CSC(=O)[C@]1([C@@H](O)C(C)C)NC(=O)[C@H](C)[C@@H]1O)C(=O)O [LAC, lactacystin]
decrease of viability compared with cells without LAC (Tonsillar T cells; 16 h culture): < 12%
decrease of viability compared with cells without LAC (Tonsillar T cells; 64 h culture): less than 27%
viability (trypan blue exclusion) (Tonsillar T cells; PHA-stimulated T cells, 10 μM LAC added at beginning, 16 h): 83%
viability (trypan blue exclusion) (Tonsillar T cells; PHA-stimulated T cells, 10 μM LAC added at beginning, 64 h): 63%
viability of the LAC-treated cell (Tonsillar T cells; PHA, LAC 10 μM added once initially, at 40 h): > 80%
viability of the treated cells (Tonsillar T cells; PHA, LAC added once at the beginning, at 16 h): 83
change of viability (trypan blue exclusion) (Tonsillar T cells; activated T cells, LAC added 40 h after PHA, 9 h culture): did not change the viability significantly
viability (trypan blue exclusion) (Tonsillar T cells; activated T cells, LAC added 40 h after PHA, additional 24 h culture): 46%
viability (trypan blue exclusion) (Tonsillar T cells; resting T cells in medium, 10 μM LAC added at beginning, 16 h): 92%
viability (trypan blue exclusion) (Tonsillar T cells; resting T cells in medium, 10 μM LAC added at beginning, 64 h): 79%
viability (trypan blue exclusion) (Tonsillar T cells; resting T cells in medium, 24 h of LAC presence): 87%
DNA fragmentation in Bcl-xL transfected vs wild type Namalwa cells (Namalwa): demonstrably less DNA fragmentation
respiration after Complex I blockage (rotenone) on adding succinate (Jurkat cells; LAC 6 μM for 4 h): could not be resumed by adding succinate
O2 consumption after Complex III (ascorbate and TMPD) (Jurkat cells; LAC for 4 h): could not be resumed by ascorbate and TMPD
O2 consumption after the addition of ascorbate and TMPD (Jurkat cells; LAC for 4 h, FCCP as decoupling reagent): reduced augmentation of O2 consumption
electron transport of the respiratory chain (Jurkat cells; within 4 h): reduce the electron transport at the complex IV
IL-2 production (IL-2): no consistent difference was found
